Data published in patent US6911477B2, “Muscarinic receptor agonists” (Pfizer Inc., priority 1996, dated 2005).
Structures can show the parent of a compound that is named as a salt.

| SMILES | melting point |
| --- | --- |
| c1ccc(N=C(N=C(Nc2ccccc2)c2ccccc2)N2CCCC2)cc1 (as salt: hydrochloride) [Example 1, N-Phenyl-N′-(phenylimino-pyrrolidin-1-yl-methyl)-benzamidine] | 246 to 247 °C |
| Fc1ccc(NC(=NC(=Nc2ccccc2)N2CCCC2)c2ccccc2)cc1 (as salt: hydrochloride) [Example 2, N-(4-Fluoro-phenyl)-N′-(phenylimino-pyrrolidin-1-yl-methyl)-benzamidine] | 259 to 260 °C (dec.) |
| Cc1ccccc1C(=NC(=Nc1ccccc1)N1CCC(=O)CC1)Nc1ccc(F)cc1 (as salt: hydrochloride) [Example 8, N-(4-Fluoro-phenyl)-2-methyl-N′-[(4-oxo-piperidin-1-yl)-phenylimino-methyl]-benzamidine] | 234 to 235 °C |
| Cc1cccc(C)c1C(=NC(=Nc1ccccc1)N1CCC(O)CC1)Nc1ccc(F)cc1 (as salt: hydrochloride) [Example 9, N-(4-Fluoro-phenyl)N′-[(4-hydroxy-piperidin-1-yl)-phenylimino-methyl]-2,6-dimethyl-benzamidine] | 163 to 165 °C |
| COc1ccc(NC(=NC(=Nc2ccccc2)N2CCCC2)c2ccccc2)cc1 (as salt: hydrochloride) [Example 15, N-(4-methoxy-phenyl)-N′-(phenylimino-pyrrolidin-1-yl-methyl)-benzamidine] | 244 to 245 °C |
| Clc1ccc(NC(=NC(=Nc2ccccc2)N2CCCC2)c2ccccc2)cc1 (as salt: hydrochloride) [Example 16, N-(4-chloro-phenyl)-N′-(phenylimino-pyrrolidin-1-yl-methyl)-benzamidine] | 219 to 221 °C |
| Cc1ccccc1C(=NC(=Nc1ccccc1)N1CCCC1)Nc1ccccc1 (as salt: hydrochloride) [Example 20, 2-methyl-N-phenyl-N′-(phenylimino-pyrrolidin-1-yl-methyl)-benzamidine] | 191 to 192 °C |
| Cc1ccccc1C(=Nc1ccccc1)NC(=Nc1ccccc1)N1CCC(O)CC1 (as salt: hydrochloride) [Example 24, N-[(4-hydroxy-piperidin-1-yl)-phenylimino-methyl]-2-methyl-N′-phenyl-benzamidine] | 218 to 220 °C |
| Fc1ccc(N=C(NC(=Nc2ccccc2)c2ccccc2)N2CCCC2)cc1 (as salt: hydrochloride) [Example 25, N-[(4-fluoro-phenylimino)-pyrrolidin-1-yl-methyl]-N′-phenyl-benzamidine] | 242 to 243 °C |
| Cc1ccccc1C(=NC(=Nc1ccccc1)N1CCC(O)CC1)Nc1ccc(F)cc1 (as salt: hydrochloride) [Example 26, N-(4-fluoro-phenyl)-N′-[(4-hydroxy-piperidin-1-yl)-phenylimino-methyl]-2-methyl-benzamidine] | 228 to 230 °C (dec.) |
| Fc1ccccc1N=C(NC(=Nc1ccccc1)c1ccccc1)N1CCCC1 (as salt: hydrochloride) [Example 27, N-[(2-fluoro-phenylimino)-pyrrolidin-1-yl-methyl]-N′-phenyl-benzamidine] | 254 to 255 °C |
| Cc1ccccc1C(=NC(=Nc1ccccc1)N1CCCCC1C)Nc1ccc(F)cc1 (stereo not drawn) (as salt: hydrochloride) [Example 28, N-(4-fluoro-phenyl)-2-methyl-N′-[(2-methyl-piperidin-1-yl)-phenylimino-methyl]-benzamidine] | 173 to 175 °C |
| Cc1ccccc1C(=Nc1ccccc1)NC(=Nc1ccc(F)cc1)N1CCC(O)CC1 (as salt: hydrochloride) [Example 29, N-[(4-fluoro-phenylimino)-(4-hydroxy-piperidin-1-yl)-methyl]-2-methyl-N′-phenyl-benzamidine] | 224 to 225 °C |
| Clc1ccccc1C(=NC(=Nc1ccccc1)N1CCCC1)Nc1ccccc1 (as salt: hydrochloride) [Example 30, 2-chloro-N-phenyl-N′-(phenylimino-pyrrolidin-1-yl-methyl)-benzamidine] | 228 to 230 °C |
| Cc1ccccc1C(=Nc1ccc(F)cc1)NC(=Nc1ccccc1)N1CCCCCC1 (as salt: hydrochloride) [Example 34, N-(azepan-1-yl-phenylimino-methyl)-N′-(4-fluoro-phenyl)-2-methyl-benzamidine] | 240 to 242 °C |
| Cc1cccc(C)c1C(=Nc1ccc(F)cc1)NC(=Nc1ccccc1)N1CCCCC1C (stereo not drawn) (as salt: hydrochloride) [Example 35, N-[(2,6-dimethyl-phenyl)-(4-fluoro-phenylimino)-methyl]-2-methyl-N′-phenyl-piperidine-1-carboxamidine] | 181 to 183 °C |

Results, then the compound that gave them:

| melting point | SMILES |
| --- | --- |
| 174 to 175 °C | Cc1ccccc1C(=NC(=Nc1ccccc1F)N1CCC(O)CC1)Nc1ccc(F)cc1 (as salt: hydrochloride) [Example 36, N-(4-fluoro-phenyl)-N′-[(2-fluoro-phenylimino)-(4-hydroxy-piperidin-1-yl)-methyl]-2-methyl-benzamidine] |
| 145 to 147 °C | CC1CCCCN1C(=Nc1ccccc1)NC(=Nc1ccc(F)cc1)c1ccccc1Cl (stereo not drawn) (as salt: hydrochloride) [Example 37, N-[(2-chloro-phenyl)-(4-fluoro-phenylimino)-methyl]2-methyl-N′-phenyl-piperidine-1-carboxamidine] |
| 199 to 200 °C (dec.) | Cc1ccccc1C(=NC(=Nc1ccccc1)N1CCCCO1)Nc1ccc(F)cc1 (as salt: hydrochloride) [Example 42, N-(4-fluoro-phenyl)-2-methyl-N′-([1,2]oxazinan-2-yl-phenylimino-methyl)-benzamidine] |
| 162 to 164 °C (dec.) | Cc1cccc(C)c1C(=NC(=Nc1ccc(F)cc1)N1CCCCC1C)Nc1ccc(F)cc1 (stereo not drawn) (as salt: hydrochloride) [Example 43, N-(4-fluoro-phenyl)-N′-[(4-fluoro-phenylimino)-(2-methyl-piperidin-1-yl)-methyl]-2,6-dimethyl-benzamidine] |
| 153 to 155 °C (dec.) | CC1CCCCN1C(N=C(Nc1ccc(F)cc1)c1c(Cl)cccc1Cl)=Nc1ccccc1 (stereo not drawn) (as salt: hydrochloride) [Example 45, 2,6-dichloro-N-(4-fluoro-phenyl)-N′-[(2-methyl-piperidin-1-yl)-phenylimino-methyl]-benzamidine] |
| 149 to 151 °C (dec.) | Cc1cccc(C)c1C(=Nc1ccc(F)cc1)NC(=Nc1ccc(Cl)cc1)N1CCCCC1C (stereo not drawn) (as salt: hydrochloride) [Example 46, N-[(4-chloro-phenylimino)-(2-methyl-piperidin-1-yl)-methyl]-N′-(4-fluoro-phenyl)-2,6-dimethyl-benzamidine] |
| 219 to 221 °C | Cc1ccccc1C(=Nc1ccc(F)cc1)NC(=Nc1ccccc1)C12CC3CC(CC(C3)C1)C2 (as salt: hydrochloride) [Example 47, N-(adamantan-1-yl-phenylimino-methyl)-N′-(4-fluoro-phenyl)-2-methyl-benzamidine] |
| 172 to 174 °C (dec.) | Cc1cccc(C)c1C(=Nc1ccc(F)cc1)NC(=Nc1ccccc1)N1C(C)CCCC1C (stereo not drawn) (as salt: hydrochloride) [Example 48, N-[(2,6-dimethyl-piperidin-1-yl)-phenylimino-methyl]-N′-(4-fluoro-phenyl)-2,6-dimethyl-benzamidine] |
